The values below come from ChEMBL document CHEMBL4825769, “Modulation of KRAS Mutant by Inhibiting PLK1 Kinase in Cancer Therapeutics” (ACS Med Chem Lett, 2021).

A value given as a limit tells only on which side of the number the result lay.

The target of data set [1] is Wee1-like protein kinase (Homo sapiens, UniProt P30291). The data set is described as follows: Inhibition of human WEE1 using LSNLYHQGKFLQTFCGSPLYRRR peptide as substrate incubated for 40 mins in presence of [gamma-33P]ATP by scintillation counting method.
The target of data set [2] is Serine/threonine-protein kinase PLK1 (Homo sapiens, UniProt P53350). As to the kind of experiment: Inhibition of human PLK1 incubated for 40 mins in presence of [gamma-33P]ATP by scintillation counting method.
Data set [3] can be described thus: Oral bioavailability in CD-1 mouse at 10 mg/kg. In kind it is ADME, organism-based. The settings on record: in vivo.

Sequence of Wee1-like protein kinase (P30291 whole entry): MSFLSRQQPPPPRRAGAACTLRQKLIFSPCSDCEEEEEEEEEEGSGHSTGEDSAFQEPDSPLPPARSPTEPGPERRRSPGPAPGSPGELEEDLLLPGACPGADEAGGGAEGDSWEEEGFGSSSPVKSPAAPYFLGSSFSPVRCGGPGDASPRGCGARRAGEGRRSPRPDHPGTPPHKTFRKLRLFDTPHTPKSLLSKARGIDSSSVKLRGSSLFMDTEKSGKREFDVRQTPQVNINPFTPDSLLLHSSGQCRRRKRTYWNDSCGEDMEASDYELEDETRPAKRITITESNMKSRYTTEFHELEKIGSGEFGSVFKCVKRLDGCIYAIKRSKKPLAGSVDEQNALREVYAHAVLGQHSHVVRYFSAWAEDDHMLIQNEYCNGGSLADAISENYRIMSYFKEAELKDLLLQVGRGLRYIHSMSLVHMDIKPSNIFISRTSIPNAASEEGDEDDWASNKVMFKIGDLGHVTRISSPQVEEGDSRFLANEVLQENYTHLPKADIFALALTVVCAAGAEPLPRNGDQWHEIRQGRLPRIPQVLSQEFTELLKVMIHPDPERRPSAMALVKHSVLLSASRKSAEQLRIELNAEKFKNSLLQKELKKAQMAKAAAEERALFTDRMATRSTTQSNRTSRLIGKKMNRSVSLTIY
Sequence of Serine/threonine-protein kinase PLK1 (P53350 whole entry): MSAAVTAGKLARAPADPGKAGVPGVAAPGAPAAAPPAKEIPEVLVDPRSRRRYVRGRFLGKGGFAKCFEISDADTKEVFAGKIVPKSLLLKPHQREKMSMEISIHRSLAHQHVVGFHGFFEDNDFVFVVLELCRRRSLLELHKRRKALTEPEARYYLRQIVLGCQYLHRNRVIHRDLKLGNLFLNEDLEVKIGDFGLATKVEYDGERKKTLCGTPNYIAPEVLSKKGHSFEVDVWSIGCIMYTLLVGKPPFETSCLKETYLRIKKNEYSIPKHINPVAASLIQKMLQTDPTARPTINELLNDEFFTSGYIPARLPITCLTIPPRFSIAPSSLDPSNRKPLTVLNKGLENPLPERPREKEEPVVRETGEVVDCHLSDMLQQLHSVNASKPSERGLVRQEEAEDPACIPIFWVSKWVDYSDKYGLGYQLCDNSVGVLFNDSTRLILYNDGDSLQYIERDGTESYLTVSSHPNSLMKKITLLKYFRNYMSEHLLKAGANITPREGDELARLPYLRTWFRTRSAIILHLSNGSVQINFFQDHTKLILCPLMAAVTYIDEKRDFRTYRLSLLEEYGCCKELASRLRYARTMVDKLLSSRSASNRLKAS

For orientation: IC50 means the point on the concentration scale where inhibition reaches its midpoint. Take `CC(C)(O)c1cccc(-n2cc(F)c3cnc(Nc4ccc(NC(=O)C5CCOCC5)cc4)nc32)n1`: the IC50 in data set [1] came out at 52 nM; in data set [2], 30 nM.
In the case of `CN1CCN(c2ccc(Nc3ncc4c(F)cn(-c5cccc(C6(F)COC6)n5)c4n3)cc2)CC1`, the half-inhibitory concentration (IC50) in data set [1] is 19 nM; in data set [2] it was 24 nM.
For the compound `CCN1CCC(Oc2ccc(Nc3ncc4c(F)cn(-c5cccc(C(C)(C)O)n5)c4n3)cc2)CC1`, the IC50 in data set [1] is 19 nM; in data set [2] it was 39 nM.
Taken in the same sequence, the figures for `CC(C)(O)c1cccc(-n2cc(F)c3cnc(Nc4ccc(N5C[C@@H]6C[C@H]5CN6)cc4)nc32)n1` were 24 nM and 30 nM.
Take `CC(C)(O)c1cccc(-n2cc(F)c3cnc(Nc4ccc(C(=O)NC5CCOCC5)cc4)nc32)n1`: the IC50 in data set [1] was 45 nM; in data set [2], 9 nM.
Taken in the same sequence, the figures for `CN1CCC(NC(=O)c2ccc(Nc3ncc4ccn(-c5cccc(C(C)(C)O)n5)c4n3)cc2)CC1` were 33 nM and 59 nM.
On to `CN1CCC(NC(=O)c2ccc(Nc3ncc4c(F)cn(-c5cccc(C(C)(C)O)n5)c4n3)cc2)CC1`, for which the results for the concentration for half-maximal inhibition (IC50) in data set [1] and in data set [2] were 39 nM and 29 nM, respectively.
As for `CCN1CCC(NC(=O)c2ccc(Nc3ncc4c(F)cn(-c5cccc(C(C)(C)O)n5)c4n3)cc2)CC1`, the figures for the IC50 in data set [1] and in data set [2] were 33 nM and 34 nM, respectively.
Taken in the same sequence, the figures for `CC(C)(O)c1cccc(-n2cc(F)c3cnc(Nc4ccc(N5C[C@H]6C[C@@H]5CN6)cc4)nc32)n1` were 21 nM and 19 nM.
As a reminder, the bioavailability is the share of a dose that reaches the circulation, judged against a reference dose that is usually intravenous. A lower bioavailability goes with little systemic uptake. `CN1CCN(c2ccc(Nc3ncc4c(F)cn(-c5cccc(N=S(C)(C)=O)n5)c4n3)cc2)CC1` had a bioavailability in data set [3] above 90%. For the same compound, the IC50 in data set [1] was 26 nM; in data set [2] it was 384 nM.
For the compound `CC(C)(O)c1cccc(-n2cc(F)c3cnc(Nc4ccc(N5CCNCC5)cc4)nc32)n1`, the values for the IC50 in data set [1] and in data set [2] were 52 nM and 60 nM, respectively.
Regarding `CC(C)(O)c1cccc(-n2cc(F)c3cnc(Nc4ccc(N5CCNC6(CC6)C5)cc4)nc32)n1`, the IC50 amounted to 63 nM in data set [1] and 61 nM in data set [2].
